PubChem BioAssay AID1259407 (Chemical Carcinogenesis Research Information System (CCRIS), 2018)
Calls of active or inactive are those of the source. How the calls were made is not given here.

System: CCRIS mutagenicity, Ames/micronucleus/aberration tests
Assay: CCRIS mutagenicity studies
[1] = Test System: AMES SALMONELLA TYPHIMURIUM, Strain/Indicator: TA98, Metabolic Activation: NONE, Method: STANDARD PLATE
[2] = Test System: AMES SALMONELLA TYPHIMURIUM, Strain/Indicator: TA98, Metabolic Activation: RAT, LIVER, S-9, AROCLOR 1254, Method: STANDARD PLATE
[3] = Test System: AMES SALMONELLA TYPHIMURIUM, Strain/Indicator: TA100, Metabolic Activation: NONE, Method: STANDARD PLATE

Measured: mutagenic call

c1ccc2c(c1)ccc1[nH]c3ccc4ccccc4c3c12
inactive: [1] inactive; negative | Test System: AMES SALMONELLA TYPHIMURIUM, Strain/Indicator: TA98, Metabolic Activation: RAT, LIVER, S-9, 3-METHYLCHOLANTHRENE, Method: STANDARD PLATE inactive; negative | [2] inactive; negative | Test System: AMES SALMONELLA TYPHIMURIUM, Strain/Indicator: TA98, Metabolic Activation: RAT, LIVER, S-9, PHENOBARBITAL, Method: STANDARD PLATE inactive; negative | Test System: AMES SALMONELLA TYPHIMURIUM, Strain/Indicator: TA100, Metabolic Activation: MOUSE, LIVER, S-9, BETA-NAPHTHOFLAVONE, Method: STANDARD PLATE inactive; negative | Test System: AMES SALMONELLA TYPHIMURIUM, Strain/Indicator: TA100, Metabolic Activation: MOUSE, LIVER, S-9, PHENOBARBITAL, Method: STANDARD PLATE inactive; negative | [3] inactive; negative | Test System: AMES SALMONELLA TYPHIMURIUM, Strain/Indicator: TA100, Metabolic Activation: RABBIT, LIVER, S-9, BENZO[A]PYRENE, Method: STANDARD PLATE inactive; negative | Test System: AMES SALMONELLA TYPHIMURIUM, Strain/Indicator: TA100, Metabolic Activation: RAT, LIVER, S-9, PHENOBARBITAL, Method: STANDARD PLATE inactive; negative | Test System: AMES SALMONELLA TYPHIMURIUM, Strain/Indicator: TM677, Metabolic Activation: NONE, Method: PREINCUBATION inactive; negative | Test System: AMES SALMONELLA TYPHIMURIUM, Strain/Indicator: TM677, Metabolic Activation: RAT, LIVER, S-9, 3-METHYLCHOLANTHRENE (10%), Method: PREINCUBATION inactive; negative
active: Test System: AMES SALMONELLA TYPHIMURIUM, Strain/Indicator: TM677, Metabolic Activation: RAT, LIVER, S-9, 3-METHYLCHOLANTHRENE (1%), Method: PREINCUBATION active; positive

Fc1ccccc1-c1ccccc1
inactive: Test System: AMES SALMONELLA TYPHIMURIUM, Strain/Indicator: TA98, Metabolic Activation: HAMSTER, LIVER, S-9, AROCLOR 1254, Method: STANDARD PLATE inactive; negative | [1] inactive; negative | [2] inactive; negative | Test System: AMES SALMONELLA TYPHIMURIUM, Strain/Indicator: TA100, Metabolic Activation: HAMSTER, LIVER, S-9, AROCLOR 1254, Method: STANDARD PLATE inactive; negative | [3] inactive; negative | Test System: AMES SALMONELLA TYPHIMURIUM, Strain/Indicator: TA100, Metabolic Activation: RAT, LIVER, S-9, AROCLOR 1254, Method: STANDARD PLATE inactive; negative | Test System: AMES SALMONELLA TYPHIMURIUM, Strain/Indicator: TA1535, Metabolic Activation: HAMSTER, LIVER, S-9, AROCLOR 1254, Method: STANDARD PLATE inactive; negative | Test System: AMES SALMONELLA TYPHIMURIUM, Strain/Indicator: TA1535, Metabolic Activation: NONE, Method: STANDARD PLATE inactive; negative | Test System: AMES SALMONELLA TYPHIMURIUM, Strain/Indicator: TA1535, Metabolic Activation: RAT, LIVER, S-9, AROCLOR 1254, Method: STANDARD PLATE inactive; negative | Test System: AMES SALMONELLA TYPHIMURIUM, Strain/Indicator: TA1537, Metabolic Activation: HAMSTER, LIVER, S-9, AROCLOR 1254, Method: STANDARD PLATE inactive; negative | Test System: AMES SALMONELLA TYPHIMURIUM, Strain/Indicator: TA1537, Metabolic Activation: NONE, Method: STANDARD PLATE inactive; negative | Test System: AMES SALMONELLA TYPHIMURIUM, Strain/Indicator: TA1537, Metabolic Activation: RAT, LIVER, S-9, AROCLOR 1254, Method: STANDARD PLATE inactive; negative | Test System: AMES SALMONELLA TYPHIMURIUM, Strain/Indicator: TA1538, Metabolic Activation: HAMSTER, LIVER, S-9, AROCLOR 1254, Method: STANDARD PLATE inactive; negative | Test System: AMES SALMONELLA TYPHIMURIUM, Strain/Indicator: TA1538, Metabolic Activation: NONE, Method: STANDARD PLATE inactive; negative | Test System: AMES SALMONELLA TYPHIMURIUM, Strain/Indicator: TA1538, Metabolic Activation: RAT, LIVER, S-9, AROCLOR 1254, Method: STANDARD PLATE inactive; negative | Test System: Mouse lymphoma, Strain/Indicator: L5178Y (tk+/tk-), Metabolic Activation: None, Method: Suspension/plate inactive; negative | Test System: Mouse lymphoma, Strain/Indicator: L5178Y (tk+/tk-), Metabolic Activation: Rat, Liver, S-9, Aroclor 1254, Method: Suspension/plate inactive; negative
